Laboratory results taken from US20100310542A1, “Pharmaceutical Compositions for treating wouds and related methods” (HEALOR LTD., priority 2007, published 2010).
* marks the point of attachment. Myristoyl = CCCCCCCCCCCCCC(=O)*

What was measured:
[1] = test system: keratin 1; assay: keratin 1 expression by Western blot in keratinocytes; type: cell-based, mice; conditions: visfatin 0.0001 μg/ml or L-alpha 100 ng/ml, 24 hours after calcium-induced differentiation
Source text: Medium A and B are both EMEM eagle's minimal essential medium from Biological Industries (Israel) containing 8% CHELEX™ treated fetal bovine serum. CHELEX™ is a strong chelator which binds free Ca^2+ and Mg^2+ ions to prevent these ions from being bioavailable to the cultured cells.
Primary skin keratinocytes isolated from the tails of adult mice (7-10 months up to 2 years) were maintained in medium A (MEM) as described above. After 5 days in (medium A), the growth medium in half of the cultured plates was replaced with medium B (as described above)
Next visfatin or L-alpha were each individually added to cells cultured in medium A (FIG. 19A) and cells cultured in medium B (FIG. 19B) as indicated in FIG. 19. The final concentration in the culture medium of visfatin was 0.0001 μg/ml visfatin. The final concentration in the culture medium of L-alpha was 100 ng/ml.
Cell differentiation was induced by elevating calcium from 0.05 mM to 0.12 mM as described above. Twenty-four (24) hours after differentiation cells were harvested and Western Blot analysis was performed. […] Keratin 1 expression was then quantified using standard densitometric methods […]
Cell differentiation was then induced by elevating calcium levels in the culture medium from 0.05 mM to 0.12 mM. […] Expression was assessed using standard Western blotting and densitometry techniques.

[2] = test system: full thickness skin incisions; assay: severe inflammatory burden at incision wounds in mice; type: in vivo, C57BL/6J mice; conditions: peptide 1 μM daily, 7 days
Experimental: Full thickness (20 mm long) skin incisions were performed on the upper back of anesthetized C57BL/6J mice (6 mice per group). Following incisions, wounds were treated daily with Myr-pseudosubstrate PKCα peptide, 1 μM applied directly on the wounds in the various formulations (Formulation A-C) described above.
(§1) After 7 days, wounds were excised and subjected to histology and immunohistochemistry. Inflammatory burden was considered severe when at least 2 of the 3 following parameters were present at the wound gap: (1) Abscess formation at the wounded area, (2) excessive leukocytosis (>100 cells in a fixed field×200), (3) high WBC/RBC ratio in blood vessels where >20% of WBC content within the blood vessels is shown in a fixed field (×200). Results are summarized and presented as percent of wounds with severe inflammation relative to the number of wounds in the group.
as §1, with “Full thickness (20 mm long) skin incisions were performed on the upper back of anesthetized C57BL/6J mice (6 mice per group). Following incision, wounds were treated daily with PKCα inhibitor (Pseudosubstrate PKCα peptide, 1 μM) applied directly to the wounds in the various formulations (Formulation A-C) described above. After” for “After”, “per total” for “relative to the number of”

[3] = test system: full thickness skin incisions; assay: incision wound healing in mice, percent of healed wounds; type: in vivo, C57BL/6J mice; conditions: agent alone, all formulations (A-C); daily, 7 days; vs groups treated with formulations alone; listed as pseudosubstrate peptide
Experimental: In vivo incision wound generation and inducement of inflammation: Full thickness (20 mm long) skin incisions were performed on the upper back of anesthetized C57BL/6J mice (6 mice per group). […] the incision, wounds were treated daily with insulin (10^−6 M; 0.1 units/ml); pseudosubstrate PKCα peptide, 1 μM (PKCα inhibitor); or Insulin+PKCα inhibitor (Myr-pseudosubstrate PKCα peptide, 1 μM and insulin 0.1 units) applied directly on the wounds in the various formulations (Formulations A-C) as described above. After 7 days, wounds were excised and the percentage of healed wounds was evaluated by examining the morphology and histology of the wounds. Results are presented as percent of healed wounds relative to the total number of wounds per group. […] Full thickness (20 mm long) skin incisions were performed on the upper back of anesthetized C57BL/6J mice (6 mice per group). […] After 7 days, wounds were excised and the percentage of healed wounds was evaluated by examining the morphology and histology of the wounds. […]

[4] = test system: PKCα; assay: PKCα activity assay in keratinocytes overexpressing PKCα; type: cell-based, murine; conditions: Formulation A; peptide 1 μM for 15 minutes; PKCα overexpressing cells; relative to controls
Experimental: Transduction of keratinocytes with PKC isoform genes: The culture medium was aspirated and keratinocyte cultures were infected with PKC recombinant adenoviruses encoding specific PKC isoforms such as PKCα for one hour. The cultures were then washed twice with MEM and re-fed. Ten hours post-infection cells were transferred to serum-free low Ca^2+-containing MEM for 24 hours.
PKC activity: Specific PKC activity was determined in freshly prepared immunoprecipitates from keratinocyte cultures following appropriate treatments. These lysates were prepared in RIPA buffer without NaF. Activity was measured using the SignaTECT Protein Kinase C Assay System (Promega, Madison, Wis., USA) according to the manufacturer's instructions. PKCα pseudosubstrate was used as the substrate in these studies.
PKC immunokinase assay: Purified and standardized PKC isozymes were kindly supplied by Dr. P. Blumberg (NCl, NIH, U.S.) and Dr. Marcello G. Kazanietz (University of Pennsylvania, School of Medicine). Primary keratinocytes were harvested in 500 μl […] (1% Triton-X 100, 10 μg/ml aprotinin and leupeptin, 2 μg/ml pepstatin, 1 mM PMSF, 1 mM EDTA, 200 μM […], 10 mM NaF in 1×PBS). Lysates were incubated at 4° C. for 30 minutes, and spun at 16,000×g for 30 minutes at 4° C. Supernatants were transferred to a fresh tube. […]

Compound | expression of keratin 1 ([1]; medium A (no KCl)) | expression of keratin 1 ([1]; medium B (KCl 0.4 mg/ml)) | severe inflammation (percent of wounds with severe inflammation) ([2]; Formulation A) | severe inflammation (percent of wounds with severe inflammation) ([2]; Formulation B) | severe inflammation (percent of wounds with severe inflammation) ([2]; Formulation C) | healing of wounds (percent of healed wounds) [3] | inhibition of PKCα activity [4]
CCCCCCCCCCCCCCCC(=O)OC[C@H](COP(=O)(O)OC1C(O)C(OP(=O)(O)O)C(OP(=O)(O)O)C(OP(=O)(O)O)C1O)OC(=O)CCCCCCCCCCCCCCC.N.N.N.N.N.N.N (stereo partly drawn) [L-alpha, L-α-Phosphatidylinositol-3,4,5-trisphosphate, Dipalmitoyl-, Heptaammonium Salt] | decreased relative to the control sample | not significantly altered |  |  |  |  | 
Myr*-Phe-Ala-Arg-Lys-Gly-Ala-Leu-Arg-Gln-OH (Myristoyl-FARKGALRQ-OH; SMILES CCCCCCCCCCCCCC(=O)N[C@@H](Cc1ccccc1)C(=O)N[C@@H](C)C(=O)N[C@@H](CCCNC(=N)N)C(=O)N[C@@H](CCCCN)C(=O)NCC(=O)N[C@@H](C)C(=O)N[C@@H](CC(C)C)C(=O)N[C@@H](CCCNC(=N)N)C(=O)N[C@@H](CCC(N)=O)C(=O)O) [PKCα inhibitor, myristoylated peptide corresponding to the pseudosubstrate region of PKCα, CAS 147217-25-2] |  |  | significant reduction in severe inflammation | No reduction in inflammatory burden | No reduction in inflammatory burden | did not promote wound healing efficacy | able to significantly inhibit PKCα activity
